Laboratory results taken from patent publication US4656166A, “Antibiotic compounds derived from cephalosporins, process for their production and pharmaceutical compositions” (Sanofi, priority 1983, dated 1987).
In brackets after ≈: the same amount, converted by molar mass. Where two headings read alike, the source gives them in different places.

Columns and labels:
Assay type in all cases: cell-based
[1] = tested on: Escherichia coli SOL 90; assay: MIC, in vitro dilution method, Escherichia coli SOL 90 (Table III); conditions: SOL90; Escherichia coli SOL 90; dilution method; read-out: MIC
In short: (§1)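 In vitro dilution method, Gram-negative strain panel; read-out = minimum inhibiting concentration, μg/ml.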

[2] = tested on: Citrobacter RL 49; assay: MIC, in vitro dilution method, Citrobacter RL 49 (Table III); conditions: RL49; Citrobacter RL 49; dilution method; read-out: MIC
Description: (§2) The products of the invention have been studied as regards their pharmacological properties and, more especially, bacteriostatic action. This has been determined in vitro by the dilution method, and the study was on Gram negative strains.
(§3) Results, expressed in minimum inhibiting concentrations (MIC-- μg/ml), are collected in the following table (Table III).

[3] = tested on: Proteus vulgaris RL 99 bis; assay: MIC, in vitro dilution method, Proteus vulgaris RL 99 bis (Table III); conditions: RL99BIS
Description: as §2, §3

[4] = tested on: Serratia RL 72; assay: MIC, in vitro dilution method, Serratia RL 72 (Table III); conditions: RL72
Description: as §2, §3

[5] = tested on: Klebsiella RO 30; assay: MIC, in vitro dilution method, Klebsiella RO 30 (Table III); conditions: RO30; Klebsiella RO 30; dilution method; read-out: MIC
In short: as §1

[6] = tested on: Enterobacter RO 154; assay: MIC, in vitro dilution method, Enterobacter RO 154 (Table III); conditions: RO154; Enterobacter RO 154; dilution method; read-out: MIC
In short: as §1

[7] = tested on: Pseudomonas RL 112; assay: MIC, in vitro dilution method, Pseudomonas RL 112 (Table III); conditions: RL112
In short: as §1

[8] = tested on: Escherichia coli 255; assay: MIC on beta-lactamase producing strain Escherichia coli 255 (Table IV); conditions: Escherichia coli 255, producing beta-lactamases; read-out: MIC
Procedure: (§4) To evaluate the stability of these products towards beta-lactamases, their MIC was determined on isogenic strains producing and not producing beta-lactamases.
(§5) The results are expressed in μg/ml in Table IV.

[9] = tested on: Escherichia coli 255/L.7; assay: MIC on strain not producing beta-lactamase, Escherichia coli 255/L.7 (Table IV); conditions: Escherichia coli 255/L.7 *, not producing beta-lactamases; read-out: MIC
Procedure: as §4, §5

[10] = tested on: Serrtia liquefaciens SL/326 A; assay: MIC on beta-lactamase producing strain Serratia liquefaciens SL/326 A (Table IV)
Procedure: as §4, §5

[11] = tested on: Serrtia liquefaciens SL 1326 S; assay: MIC on strain not producing beta-lactamase, Serratia liquefaciens SL 1326 S (Table IV); conditions: SL1326S, not producing beta-lactamases
Procedure: as §4, §5

[12] = tested on: Proteus vulgaris GN 76/C.1; assay: MIC on beta-lactamase producing strain Proteus vulgaris GN 76/C.1 (Table IV); conditions: GN76
Procedure: as §4, §5

[13] = Proteus vulgaris RL 99 bis, dilution method, read-out: MIC
[14] = Proteus vulgaris GN 76/C.1, producing beta-lactamases, read-out: MIC

Structure (SMILES) | MIC [1] [µg/mL] | MIC [2] [µg/mL] | MIC [3, 13] [µg/mL] | MIC [4] [µg/mL] | MIC [5] [µg/mL] | MIC [6] [µg/mL] | MIC [7] [µg/mL] | MIC [8] [µg/mL] | MIC [9] [µg/mL] | MIC [10] [µg/mL] | MIC [11] [µg/mL] | MIC [12, 14] [µg/mL] | MIC ([3]; Proteus vulgaris) [µg/mL] | MIC ([12]; Proteus vulgaris) [µg/mL]
CC(C)(O/N=C(\C(=O)NC1C(=O)N2C(C(=O)O)=C(COC(=O)C3(N)CCCC3)C[S+]([O-])C12)c1csc(N)n1)C(=O)O (stereo not drawn) [41 975] | 0.25 (≈ 0.408 µM) | 0.5 (≈ 0.816 µM) | 0.5 (≈ 0.816 µM) | 4 (≈ 6.53 µM) | 0.5 (≈ 0.816 µM) | 8 (≈ 13.1 µM) | 8 (≈ 13.1 µM) | 0.5 (≈ 0.816 µM) | 0.5 (≈ 0.816 µM) | 0.25 (≈ 0.408 µM) | ≤ 0.12 | 0.5 (≈ 0.816 µM) | – | –
CC(C)(ON=C(C(=O)NC1C(=O)N2C(C(=O)O)=C(CSC(=O)c3cccc(CN)c3)C[S+]([O-])C12)c1csc(N)n1)C(=O)O (stereo not drawn) [compound 42531] | 0.5 (≈ 0.768 µM) | 0.25 (≈ 0.384 µM) | – | 0.5 (≈ 0.768 µM) | 0.25 (≈ 0.384 µM) | 0.5 (≈ 0.768 µM) | 8 (≈ 12.3 µM) | 0.125 (≈ 0.192 µM) | 0.0625 (≈ 0.096 µM) | 0.125 (≈ 0.192 µM) | 0.0625 (≈ 0.096 µM) | – | ≤ 0.125 | 0.0625 (≈ 0.096 µM)
CC(N)CCC(=O)OCC1=C(C(=O)O)N2C(=O)C(NC(=O)C(=NOC(C)(C)C(=O)O)c3csc(N)n3)C2[S+]([O-])C1 (stereo not drawn) [42 027] | 0.25 (≈ 0.416 µM) | 0.25 (≈ 0.416 µM) | ≤ 0.12 | 0.5 (≈ 0.832 µM) | 0.25 (≈ 0.416 µM) | 2 (≈ 3.33 µM) | 4 (≈ 6.66 µM) | 0.12 (≈ 0.2 µM) | 0.06 (≈ 0.0999 µM) | 0.25 (≈ 0.416 µM) | ≤ 0.06 | 0.12 (≈ 0.2 µM) | – | –
CNCCCC(=O)OCC1=C(C(=O)O)N2C(=O)C(NC(=O)/C(=N\OC(C)(C)C(=O)O)c3csc(N)n3)C2[S+]([O-])C1 (stereo not drawn) [42 028] | 0.25 (≈ 0.416 µM) | 0.5 (≈ 0.832 µM) | ≤ 0.12 | 0.5 (≈ 0.832 µM) | 0.25 (≈ 0.416 µM) | 2 (≈ 3.33 µM) | 4 (≈ 6.66 µM) | 0.12 (≈ 0.2 µM) | 0.12 (≈ 0.2 µM) | 0.12 (≈ 0.2 µM) | ≤ 0.06 | 0.25 (≈ 0.416 µM) | – | –
CC(C)(ON=C(C(=O)NC1C(=O)N2C(C(=O)O)=C(CSC(=O)C3CCC(CN)CC3)C[S+]([O-])C12)c1csc(N)n1)C(=O)O (stereo not drawn) [compound 42118] | 1 (≈ 1.52 µM) | 0.5 (≈ 0.761 µM) | 0.25 (≈ 0.381 µM) | 4 (≈ 6.09 µM) | 0.5 (≈ 0.761 µM) | 16 (≈ 24.4 µM) | 8 (≈ 12.2 µM) | 0.5 (≈ 0.761 µM) | 0.25 (≈ 0.381 µM) | 0.25 (≈ 0.381 µM) | 0.12 (≈ 0.183 µM) | 0.5 (≈ 0.761 µM) | – | –
Cc1c(CN)cccc1C(=O)SCC1=C(C(=O)O)N2C(=O)C(NC(=O)C(=NOC3(C(=O)O)CCC3)c3csc(N)n3)C2[S+]([O-])C1 (stereo not drawn) [compound 42536] | 0.5 (≈ 0.739 µM) | 0.25 (≈ 0.369 µM) | ≤ 0.125 | 0.5 (≈ 0.739 µM) | 0.25 (≈ 0.369 µM) | 0.5 (≈ 0.739 µM) | 8 (≈ 11.8 µM) | – | – | – | – | – | – | –
CC(C)(O/N=C(\C(=O)NC1C(=O)N2C(C(=O)O)=C(COC(=O)CC3CCCCN3)C[S+]([O-])C12)c1csc(N)n1)C(=O)O (stereo not drawn) [42 371] | 0.5 (≈ 0.798 µM) | 0.25 (≈ 0.399 µM) | ≤ 0.125 | 0.5 (≈ 0.798 µM) | 0.25 (≈ 0.399 µM) | 0.25 (≈ 0.399 µM) | 8 (≈ 12.8 µM) | – | – | – | – | – | – | –
CC(ON=C(C(=O)NC1C(=O)N2C(C(=O)O)=C(CSC(=O)C3CCNCC3)C[S+]([O-])C12)c1csc(N)n1)C(=O)O (stereo not drawn) [compound 42218] | 0.5 (≈ 0.813 µM) | 0.25 (≈ 0.407 µM) | 0.5 (≈ 0.813 µM) | 2 (≈ 3.25 µM) | 0.5 (≈ 0.813 µM) | 0.5 (≈ 0.813 µM) | 64 (≈ 104 µM) | – | – | – | – | – | – | –
CC(C)(ON=C(C(=O)NC1C(=O)N2C(C(=O)O)=C(CSC(=O)C3CCN(C(=O)CN)CC3)C[S+]([O-])C12)c1csc(N)n1)C(=O)O (stereo not drawn) [compound 42673] | – | – | – | – | – | – | – | 0.25 (≈ 0.365 µM) | 0.25 (≈ 0.365 µM) | 0.25 (≈ 0.365 µM) | 0.0625 (≈ 0.0911 µM) | 0.25 (≈ 0.365 µM) | – | –
CCNCc1ccc(C(=O)OCC2=C(C(=O)O)N3C(=O)C(NC(=O)/C(=N\OC(C)(C)C(=O)O)c4csc(N)n4)C3[S+]([O-])C2)cc1 (stereo not drawn) [42 396] | ≤ 0.125 | ≤ 0.125 | ≤ 0.125 | 1 (≈ 1.51 µM) | ≤ 0.125 | ≤ 0.125 | 8 (≈ 12.1 µM) | – | – | – | – | – | – | –
